Counter-ions that a name gives are not always drawn.
## CCCCc1nc2cc(Br)cc(C(=O)O)c2n1Cc1ccccc1Cl [Example 4, 5-Bromo-2-n-butyl-1-(2-chlorophenyl)methyl-1H-benzimidazole-7-carboxylic Acid]
  melting point: 254 to 255 °C

## CCCCc1ncc(CC(Cc2ccccc2)C(=O)O)n1Cc1ccccc1Cl (stereo not drawn) (as salt: hydrochloride) [Example 2, 3-[2-n-Butyl-1-{(2-chlorophenyl)methyl}-1H-imidazol-5-yl]-2-benzylpropanoic Acid]
  melting point: 118 to 120 °C

## CCCSc1ncc(C[C@H](NC(=O)CCC)C(=O)O)n1Cc1ccccc1Cl [Example 1, 3-[(2-Chlorophenyl)methyl]-2-propylthio-N-butyrylhistidine]
  melting point: 178 to 181 °C

Source: US20020068759A1, “Medicament” (SmithKline Beecham plc, priority 1990, published 2002)
